Structures can show the parent of a compound that is named as a salt.
How the values were obtained:
[1] = tested on: hot plate pain threshold in mice; experiment: hot plate method, compound 1, intragastric administration; type: in vivo
Description: All the mice participating in the experiment were subjected to hot plate pain threshold detection before the experiment, and qualified mice with pain threshold of 10-40 s were screened.
Accurately weigh an appropriate amount of compound 1, dissolve it in distilled water and prepare a mother liquor of 100 mg/ml, then dilute to 1.25 mg/ml (25 mg/kg), 2.5 mg/ml (50 mg/kg) with double distilled water respectively; accurately weigh an appropriate amount of the positive control drug gabapentin, dissolve in distilled water and prepare a 100 mg/ml mother solution, and then dilute to 10 mg/ml (200 mg/kg) with double distilled water. All medicines are prepared and utilized as needed.
40 only qualified mice were divided into 4 groups, half male and half female in each group. The first group is the blank group, no administration; the second group is the positive control (gabapentin) 25 mg/kg group; the third group is the test drug 25 mg/kg group; the fourth group is the test drug 50 mg/kg group 4. All were administered by gavage.
The mice were placed in a hot plate apparatus at a temperature of 55±0.5° C., and the pain thresholds of the mice were measured and recorded before administration and 60 min after administration.

[2] = tested on: nitroglycerin-induced migraine mouse model; experiment: nitroglycerin-induced migraine mouse model (hot plate, head scratching, body weight); type: in vivo, ICR mice
Description: 48 ICR mice weigt 18-22 g, half male and half female; purchased from Qinglongshan Animal Breeding Farm, Jiangning District, Nanjing City, certificate: SCXK (Su) 2017-0001; rearing conditions: room temperature 18-20° C., same sex rearing in separate cages, 12 hours of light, regular ventilation, conventional full-price solid feed feeding, bedding changed every two days; 48 mice were randomly divided into 6 groups (blank control group, model group, positive drug group, low-dose group of test drug, medium-dose group of test drug, high-dose group of test drug), 8 animals (4♀4) in each group, marked No. 1-8 with picric acid respectively.
Solvent: 0.5% CMC-Na aqueous solution; positive drug: flunarizine hydrochloride (sibelin) capsules (specification 5 mg), take the contents in a mortar, add 100 ml of 0.5% CMC-Na solution while grinding, placed in EP tubes for standby; Test drug (compound 5): dissolve into 5, 10, 20 mg/ml solutions with distilled water respectively, and placed in EP tubes for standby; Modeling drug (nitroglycerin): take 2 nitroglycerin tablets (specification 5 mg), crushed into powder, placed in EP tubes, added 500 μl of propylene glycol with a pipette and shaken well, standing still for 5 minutes, added 9.5 ml of normal saline, shaken well and standing still overnight, take the supernatant (containing nitroglycerin) 1 mg/ml) for use.
Except for the first group (blank control group), animals in other groups were subcutaneously injected with 10 mg/kg (0.2 ml/20 g) of nitroglycerin back-up solution 1 h after each administration (modeling once every other day on the 1st, 3rd, and 5th days).
The first group was the blank control group, which was given 0.5% CMC-Na 0.2 ml/20 g by gavage; the second group was the model group, which was given 0.5% CMC-Na by gavage; the third group was the positive drug group, which was given by gavage Flunarizine hydrochloride (sibilin) 1 mg/kg; the fourth group was the low-dose group of test drug, which was given 100 mg/kg of compound 5 by gavage; the fifth group was the medium-dose group of test drug, which was given 200 mg/kg of compound 5 by gavage; the sixth group was the high-dose group of test drug, which was given 400 mg/kg of compound 5 by gavage. Dosing every other day on days 1, 3, and 5.
In behavioral studies, mice scratching their heads for more than 5 times or scratching their faces with forelimbs for more than 5 times were identified as migraine-related behaviors caused by modeling, with a record of scratching their heads once; in the hot plate method, mice lifted their hind limbs and licked their hind feet as the observation indicator, record the time immediately.

righting reflex in mice = experiment: mouse righting reflex test (sedative and hypnotic effects); type: in vivo, Kunming mice; conditions: intraperitoneal, Pro 25 mg/kg, n = 7
Description: Experimental animals, SPF Kunming mice, male, 20-30 g, Laboratory Animal Center of Lanzhou University (certificate number: SCXK (Gan) 2018-0002), reared in separate cages, temperature, 22±1° C., humidity, 50%, automatic in the light-controlled 12 h/12 h light-dark cycle (light-on time 8:00 h, light-off time 20:00 h, light intensity ≈100 lux) environment, free food and activities, adapted to the experimental environment for 5 days.
(§1) Statistical analysis, the experimental data were analyzed by SPSS 19.0 statistical software, and all data were expressed as Means±SEM.

reserpine-treated mice = experiment: mouse sugar water preference test (reserpine depression model); type: in vivo, Kunming mice; conditions: after Res 6 mg/kg i.p., CLI 50, Pro 25, A1P1 24 and 25, compound 5 56 mg/kg i.p.; for Sugar water preference (sugar water drinking amount/total drinking amount): Means±SEM, Res + DMSO 0.642 ± 0.036, DMSO 0.901 ± 0.026
Description: Experimental drug, clomipramine (CLI), sigma company, batch number: C7291, 10 mg/ml (10% DMSO); reserpine (Res), sigma company, batch number: 83580, 1 mg/ml (10% DMSO);
SPF adult male Kunming mice, 20-30 g, Laboratory Animal Center of Lanzhou University, animal certificate number: SCXK (Gan) 2018-0002, reared in separate cages, temperature 22±1° C., humidity […], 12 h/12 h light and dark cycle controlled by dynamic light (light-on time 8:000 h, light-off time 20:000 h, light intensity≈100 lux), animals could eat and move freely.
as §1

[3] = tested on: reserpine depression model mice; experiment: forced swimming test in mice (reserpine depression model); type: in vivo, Kunming mice; conditions: after Res 6 mg/kg i.p., CLI 50, Pro 25, A1P1 24 and 25, compound 5 56 mg/kg i.p.; for Forced swimming immobility time: 5 min test, Means±SEM, Res + DMSO 169.82 ± 11.22, DMSO 106.72 ± 16.49
Description: Experimental Drug, Animal, Grouping and Administration are Same as Sugar Water Preference Experiment Method.
Preparation of depression animal models, acute intraperitoneal injection of 6 mg/kg Res can cause a continuous decrease in monoamine neurotransmitters in the brain for 1 week, and depression-like behaviors last for 72 hours, it is often utilized for the preparation of depression models (Huang et al., 2004).
Forced swimming experiment process, the forced swimming experiment is an experiment in which animals are placed in an unavoidable stressful environment to detect the despair state of animal behavior (Porsolt et al., 1978). Male Kunming mice were selected and randomly divided into groups. Conduct in a quiet and enclosed behavioral observation room, with red lights for indoor lighting (25 lux). The experiment is divided into two stages, the first stage: adaptation experiment, 1 day before the test, 9:00-12:00 h, put the animals into the forced swimming test equipment (plexiglass drum: diameter 20 cm, height 25 cm, water depth 12 cm, water temperature 21-25° C., the upper side CCD camera is connected to the computer to record) after 15 minutes of adaptation, take it out, dry the hair with a towel and put it back into the cage. The second stage: testing experiment, animals in each group were put into the forced swimming bucket for 5 minutes at the same time period, and the behavioral activities during the testing period were tracked and recorded by digital cameras and then analyzed. Immobility time: The animal floats on the water surface, with no movement of the limbs or slight movement of the hind limbs to keep the head above the water surface. Evaluate depression like behavior by detecting the despair state of animals based on their immobility time.
as §1

[4] = tested on: lipopolysaccharide-induced depression mouse model; experiment: lipopolysaccharide-induced depression mouse model (open field, forced swimming test, body weight); type: in vivo, ICR mice
Description: Positive drug: fluoxetine hydrochloride capsule (specification 20 mg), take the content in a mortar, add 40 ml of 0.5% CMC-Na solution while grinding, to a suspended state, set EP tube for use; test drug (compound 5): dissolve into 5, 10, and 20 mg/ml solutions in distilled water, respectively, and put them in EP tubes for later use; modeling drug (LPS): take a frozen lipopolysaccharide PBS solution (1.2 mg: 1.2 ml), and after thawing Use a pipette to take 1 ml into the EP tube, replace with a new pipette tip and pipette 9 ml of normal saline into the EP tube, shake well for use.
Except for the first group (blank control group), other groups of animals were intraperitoneally injected with LPS 2 h before the last administration on the 7th day to the mice in the model group, the positive drug group, and the low, middle and high dose groups of the test drug.
The first group was the blank control group, which was given 0.5% CMC-Na 0.2 ml/20 g by gavage; the second group was the model group, which was given 0.5% CMC-Na by gavage; the third group was the positive drug group, which was given by gavage Flunarizine hydrochloride (sibilin) 1 mg/kg; the fourth group was the low-dose group of the test drug, which was given 100 mg/kg of compound 5 by gavage; the fifth group was the medium-dose group of the test drug, which was given 200 mg/kg by gavage. kg of compound 5; the sixth group was the test drug high-dose group, and 400 mg/kg of compound 5 was administered by gavage. The drug was administered for one week, and the second to sixth groups were intraperitoneally injected with 1 mg/kg (0.2 ml/20 g) of LPS on the seventh day to establish a model.
On the 7th day, before the last administration and modeling, the effect of the drug on the spontaneous activity of the mice should be investigated, and it is excluded that the drug increases the spontaneous activity of the mice and interferes with the immobility time in the forced swimming experiment. The total migration distance of each mouse in the open field (50×50×50 cm) within 5 min was calculated using the open field experimental instrument and related computer software. Before the data collection, each mouse was given 5 min to familiarize with the open field environment, after each mouse was tested, its excrement was removed and the odor was eliminated with an alcohol spray bottle.
Because the air temperature is low, it is appropriate to control the water temperature by adding hot water to the cylinder.
In the spontaneous activity, the behavioral index selects the total migration distance of mice in the open field within 5 minutes,
by tracking the movement trajectory of mice through monitoring devices, and using computer software, the total distance of movement can be directly obtained; in the FST experiment, the mice were placed in a into a transparent cylinder filled with warm water (about 25° C.) for 6 minutes, the mice will experience struggling, swimming and floating behaviors, the time when the mice stop struggling to float on the water surface is identified as a state of despair caused by depression, by using monitoring equipment and computer software to statistically analyze the state of mice after 4 minutes, the total “Immobility time” can be directly obtained.

[5] = compound 5 56 mg/kg, A1P1 24 and 25 mg/kg, Dia 5 mg/kg

**Q.** What does the source list for NCC1(CC(=O)O)CCCCC1 [Gabapentin, gabapentin, reference compound]?
**A.** Pain response time Before administration ([1]; 25 mg/kg gavage group, baseline, n 10, X ± SD): 16.6 ± 5.2 s; Pain response time After administration ([1]; 25 mg/kg gavage, 60 min after administration, X ± SD): 33.5 ± 15.0 s; Pain response time extension rate ([1]; 25 mg/kg gavage, 60 min after administration, blank group 3.9 ± 6.6): 113.4 ± 99.1 %

**Q.** How did the “weight gain of mice” value ([2]; reference blank group, compound 5 100, 200, 400 mg/kg, flunarizine hydrochloride 1 mg/kg, gavage, p>0.05) turn out when Fc1ccc(C(c2ccc(F)cc2)N2CCN(C/C=C/c3ccccc3)CC2)cc1 [flunarizine hydrochloride, reference compound] was run?
**A.** The value was “no significant difference”.

**Q.** And the “hind feet licking time (hot plate)” value ([2]; reference model group, flunarizine hydrochloride 1 mg/kg gavage, 45 min after modeling, day 5, p<0.05)?
**A.** The value was “significant difference”.

**Q.** What about the “total number of head scratching times” value ([2]; reference model group, flunarizine hydrochloride 1 mg/kg gavage, day 5) of the same molecule?
**A.** The value was “extremely significant (p<0.01)”.

**Q.** Which results are given for CN1C(=O)CN=C(c2ccccc2)c2cc(Cl)ccc21 [Dia, Diazepam, reference compound]?
**A.** Disappearance time (latency of disappearance of the righting reflex) (righting reflex in mice; [5]): did not disappear; Observation of activity and other phenomena (righting reflex in mice; [5]): significantly reduced

**Q.** For CN(C)CCCN1c2ccccc2CCc2ccc(Cl)cc21 [CLI, clomipramine, reference compound], which “change of preference for sugar water compared with the Res+DMSO group” value (reserpine-treated mice) is on record?
**A.** Its value is “significantly increased”.

**Q.** What about the “Sugar water preference (sugar water drinking amount/total drinking amount)” value (reserpine-treated mice) of the same molecule?
**A.** The value was 0.812 ± 0.025.

**Q.** What about the “change of forced swimming immobility time compared with the Res+DMSO group” value [3] of the same molecule?
**A.** The value was “significantly shortened”.

**Q.** And the “Forced swimming immobility time” value [3]?
**A.** Its value is 80.66 ± 23.68 s.

**Q.** How did the “effect on body weight of mice” value ([4]; compound 5 100, 200, 400 mg/kg and positive drug, gavage for one week) turn out when CNCCC(Oc1ccc(C(F)(F)F)cc1)c1ccccc1 (stereo not shown) [fluoxetine hydrochloride, reference compound] was run?
**A.** Its value is “no significant effect”.

**Q.** And the “alleviation of depressive behavior caused by LPS” value ([4]; compound 5 100, 200, 400 mg/kg and positive drug, gavage for one week, no statistical difference found)?
**A.** Its value is “certain alleviation effect”.

**Q.** What about the “spontaneous activity: total migration distance in open field within 5 minutes” value ([4]; reference blank group, day 7 before last administration, all dose groups, p>0.05) of the same molecule?
**A.** Its value is “no significant effect”.

**Q.** And the FST immobility time ([4]; reference model group, compound 5 100, 200, 400 mg/kg and positive drug, gavage for one week, 4 h after LPS)?
**A.** Its FST immobility time is “not significantly different (p>0.05)”.

**Q.** Which results are given for CC(C)c1cccc(C(C)C)c1O [Pro, Propofol, reference compound]?
**A.** Duration (disappearance to recovery of the righting reflex) (righting reflex in mice): 150.97 s; Observation of activity and other phenomena (righting reflex in mice; [5]): significantly reduced; change of preference for sugar water compared with the Res+DMSO group (reserpine-treated mice): rose significantly; Sugar water preference (sugar water drinking amount/total drinking amount) (reserpine-treated mice): 0.789 ± 0.043; change of forced swimming immobility time compared with the Res+DMSO group [3]: slightly shortened; Forced swimming immobility time [3]: 145.01 ± 21.21 s
